Data from publication PMC11225352, “A multicenter, randomized, double-blind, placebo-controlled ascending dose study to evaluate the safety, tolerability, pharmacokinetics (PK) and pharmacodynamic (PD) effects of Posiphen in subjects with early Alzheimer’s Disease” (Alzheimer's Research & Therapy, 2024).

Key:
sAPPβ = assay: CSF sAPPβ level, screening to day 21 (MSD immunoassay); format: in vivo, human; conditions: ANOVA with age and sex as covariates; p = 0.16
Protocol: (§1) For biochemical analysis to derive data for SILK, ^13C6-leucine was analyzed in plasma and CSF by mass spectrometry, and Aβ peptides in CSF were analyzed by immunoprecipitation-mass spectrometry (IP-MS) as previously described, by C2N Diagnostics (St Louis, MO). CSF levels of sAPPα, sAPPβ, Aβ38, 40 and 42 were analyzed by the ADCS Biomarker Core using Mesoscale Discovery (MSD) electrochemiluminescent assays (Mesoscale Discovery, Rockville, MD). Levels of Posiphen and its N1 and N8 metabolites in plasma and CSF were measured by Charles River Laboratories (Montreal, CA) by high-performance liquid chromatographic mass spectrometry, with use of deuterated Posiphen (procured by Charles River Laboratories) as an internal standard.
Changes in CSF biomarkers from the screening to confinement (sample at time of placement of catheter) were compared in the treatment and placebo groups by ANOVA, with models that included age, sex and baseline MMSE, and further analysis stratified by treatment dose. A similar approach was taken to analyze changes in MMSE, ADAS-cog and NPI. Data were analyzed using R (version 4.2.2).

Aβ40 = assay: SILK analysis of CSF Aβ40 (fractional synthesis rate, IP-MS); format: in vivo, human
Protocol: From June 5, 2017 to December 31, 2021, we conducted the DISCOVER randomized clinical trial at five participating sites, coordinated by the Alzheimer’s Disease Cooperative Study (ADCS) at UCSD, with funding from the National Institute on Aging and investigational product provided by Annovis, Inc. This study was approved by each participating site’s IRB and was registered on https://www.clinicaltrials.gov/ as NCT02925650. The trial was conducted according to the guidelines of good clinical practice (GCP) and was monitored by the ADCS. A Data Safety Monitoring Board (DSMB) reviewed data for each cohort and for the study overall. […]
For the confinement visit, subjects arrived in the early morning after an overnight fast. […] After 36 h, intravenous lines and the CSF catheter were removed, vital signs were measured, physical exam performed, and blood and CSF were sent for routine laboratory studies. […]
For biochemical analysis to derive data for SILK, ^13C6-leucine was analyzed in plasma and CSF by mass spectrometry, and Aβ peptides in CSF were analyzed by immunoprecipitation-mass spectrometry (IP-MS) as previously described, by C2N Diagnostics (St Louis, MO). CSF levels of sAPPα, sAPPβ, Aβ38, 40 and 42 were analyzed by the ADCS Biomarker Core using Mesoscale Discovery (MSD) electrochemiluminescent assays (Mesoscale Discovery, Rockville, MD). […]

Aβ38 = assay: SILK analysis of CSF Aβ38 (fractional synthesis rate); format: in vivo, human; conditions: after 21 days
Protocol: as §1
For SILK, the fraction of labeled Aβ for Aβ38, 40, and 42 during 36 h after administration of study drug for each subject was calculated, as described. The FSR measures were calculated by fitting a line to the upslope of the CSF Aβ labeling data. It was assumed that the upslope occurred between hours 6–16 h after the start of confinement. […] The percentage of newly synthesized and degraded Aβ was estimated over 36 h by multiplying the […] concentration of Aβ measured at the start of confinement (i.e. at catheter placement; time = 0) by the percentage of Aβ that contains ^13C6-leucine at each time point. […]

[1] = set-up: method as in PMID 22791904; conditions: cited from earlier work

CN1CC[C@]2(C)c3cc(OC(=O)Nc4ccccc4)ccc3N(C)[C@H]12 [Posiphen]
CSF sAPPβ, Treatment difference (Posiphen – placebo) (sAPPβ): 47.9 (31.6) p = 0.16 pg/mL
effect on FSR for CSF Aβ40 vs. placebo (Aβ40; after 21 days, FSR from hours 6–16 and automated method, no dose-dependent effect): no significant effect
peak in labeling (SILK curve) (Aβ40; single 180 mg per day subject, previous study maximum 24.7 h): about 28 h
effect on FSR estimates for Aβ38 vs. placebo (Aβ38): no significant effect
safety and tolerability, multiple dose studies ([1]; 20, 40 or 60 mg given four times per day): safe and well-tolerated
gastro-intestinal side effects ([1]; Single Ascending Dose study, daily dose of 160 mg or higher): high rate of gastro-intestinal side effects
plasma half-life ([1]; oral, up to four times per day): short
